The source of these data is paper PMC9135303, “Interaction of fungal lipase with potential phytotherapeutics” (PLoS ONE, 2022).

The subject of experiment [1] is Aspergillus niger lipase. Briefly: Lipase inhibition assay with pNPP substrate. To be noted: for inhibition of lipase activity (in words): 0.5 mmoles/litre to 1.5 mmoles/litre, pNPP as substrate; for inhibition of lipase: 1.5 mmol/litre, para-nitrophenyl palmitate (pNPP) substrate, 37°C; for lipase activity: at about 1.5mmoles/litre. The format is biochemical. How it is done: Lipase assays were performed in a 96-well, clear, flat-bottomed plate with 200 μl reaction volume. pNPP was used as a substrate with a reaction buffer of 50 mM sodium phosphate, 5 mM sodium taurocholate, and 10% isopropanol at pH 8.0 [8, 9]. Lipase assays was performed in 200 μl reaction volume and substrate conversion was monitored with a Multiskan Go spectrophotometer (Thermo Scientific) at 410 nm. All assays were run at 37°C and reported results are the average of three replicates that were blank subtracted. The Lipase inhibitory activity was expressed as percentage inhibition calculated as: % Inhibition = [(Acontrol − Atest sample)/[…]]*100.
Significant inhibition was obtained at 0.5 mmoles/litre. For all three molecules indicating structural changes begin well below this concentration. According to all binding experiments have been performed in concentration range at 50 μM to 400 μM.

Experiment [2] relates to Aspergillus niger lipase. The experiment in a line: Fluorescence quenching of lipase (Stern-Volmer and double-logarithmic plots). In kind it is binding. To be noted: for binding affinity with Aspergillus niger lipase (order of magnitude): conclusion, unit not given; for ksv (Stern-Volmer constant): pH 7.4, ligand 50-400 μM; for kq (quenching rate constant): pH 7.4, τ0 10^-9 s. How it is done: (§1) Lipase and HSA were dialyzed against KCl- buffer (pH 7) for 24 hrs. Stock solution of lipase was prepared in 10 mM phosphate buffer at pH 7.4 to obtain a particular concentration. […] These samples were incubated at 298.0 K for about 24 hrs.
(§2) Fluorescence spectra were recorded on Hitachi F-4010 spectrofluorometer equipped with circulating water bath to maintain the temperature of the cell. The quartz cell of path length 1.0 cm and band slit of 5.0 nm were used for all experiments. The excitation wavelength was 280 nm for lipase and HSA. Emission spectra were recorded from 300–450 nm for lipase and HSA protein.
(§3) Herein, the fluorescence intensities were corrected for absorption of the exciting light and reabsorption of the emitted light to decrease the inner filter effect according to the following equation [10] (Chi & Liu, 2011): Fcorr=Fobs10^Aex+Aem/2, Where Fcorr and Fobs are corrected and experimentally measured fluorescence intensities, respectively. […] The fluorescence intensity utilized in this paper was the corrected intensity.
(§4) Emission fluorescence spectra were measured in the 300–450 nm interval, at a fixed excitation wavelength of 280 nm. Occurrence of an emission maximum at 344 nm in the fluorescence spectrum of lipase can be attributed to the presence of tryptophan residue of lipase. Even though the intrinsic fluorescence of pancreatic lipase is attributed to three amino acid residues, phenylalanine (Phe), tyrosine (Tyr), and tryptophan (Trp), the fluorescence of Phe and Tyr residues at this wavelength is negligible, so intrinsic fluorescence of the fungal enzyme is mainly due to Trp. […] Several earlier reports have shown similar fluorescence quenching of protein upon interaction with various drug molecules, without any shift in the emission maximum. The observed quenching in the protein fluorescence can be induced by a variety of molecular interactions such as rearrangement of molecules, ground-state complex formation, excited-state reactions, energy transfer and collisional quenching.
In order to gain insight into quenching mechanism involved in linalool-lipase, carvacrol- lipase and thymol- lipase interaction, or to gain further insight into the mechanism of tertiary structure we analysed the fluorescence quenching data using Stern–Volmer equation. […] S1A–S1C Fig and Table 1. gives ksv and kq values of Lipase—lin as 1.73 x 10^4 M^-1 and 1.73 x 10^13 M^-1s^-1, Lipase—car as 2.17 x 10^3 and 2.17 x 10^12, Lipase—thy as 1.76 x 10^4 and 1.76 x 10^13 respectively. […] Binding constant and number of binding sites were determined by plotting log (F0—F)/F versus log [ligand] according to equation: Log[(F0–F)/F=logKa+nlogligand] where Ka and n are binding constants and stoichiometry of association process respectively. Linear relationship is obtained from log(F− F0) / F versus log[ligand].

The target in experiment [3] is T1, Human Serum Albumin (HSA) (Homo sapiens, UniProt P02768).
T1 construct: purchased Sigma-Aldrich
T1 sequence (P02768 25-609): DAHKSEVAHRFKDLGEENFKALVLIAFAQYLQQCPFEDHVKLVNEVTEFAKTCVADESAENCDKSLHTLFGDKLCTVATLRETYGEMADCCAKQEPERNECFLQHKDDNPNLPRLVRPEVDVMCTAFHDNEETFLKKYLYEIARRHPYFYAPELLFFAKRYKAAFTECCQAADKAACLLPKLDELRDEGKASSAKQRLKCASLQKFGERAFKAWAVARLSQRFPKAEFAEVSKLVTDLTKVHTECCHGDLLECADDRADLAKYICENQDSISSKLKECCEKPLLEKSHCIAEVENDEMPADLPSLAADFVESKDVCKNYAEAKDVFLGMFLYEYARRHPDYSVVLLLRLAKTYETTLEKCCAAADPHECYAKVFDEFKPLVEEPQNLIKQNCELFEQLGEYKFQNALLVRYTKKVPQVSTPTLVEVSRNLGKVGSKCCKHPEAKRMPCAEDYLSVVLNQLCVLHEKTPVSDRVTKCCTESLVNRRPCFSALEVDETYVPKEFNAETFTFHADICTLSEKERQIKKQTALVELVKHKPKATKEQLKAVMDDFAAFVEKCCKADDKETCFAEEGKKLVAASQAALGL
The experiment in a line: Fluorescence quenching of HSA (Stern-Volmer and double-logarithmic plots). The format is binding. The note with it: for blue shift in the emission maximum of HSA: excitation 280nm, from 342 nm, throughout the titration. As for the experimental part: as §1, §2, §3
(§5) The HSA were excited at 280nm and spectra were taken from 300nm to […].
The plot of F0/F against [linalool] at 298K is given as S3A Fig. The values of ksv and kq could be calculated from the slope of curves. The average lifetime of the fluorophore in the absence of the ligand as 6.38 × 10^−9 s for HSA [23]. […] Ka and ‘n’ were calculated from equation: Log[(F0–F)/F] = logKa + n log[linalool].

Experiment [4] deals with T1, Human Serum Albumin (HSA). The experiment in a line: Far-UV circular dichroism of HSA. To be noted: 24 hours at 298.15 K, pH 7.4, native -17.76. As for the experimental part: CD spectra were obtained over wavelength range of 200–250 nm on Jasco-1500 CD Spectrometer equipped with peltier type temperature controller. 0.1cm quartz cell were used to measure far UV CD spectrum. The concentration of protein used was 0.2 mg/ml (lipase) and 0.35 mg/ml (HSA). Each spectrum was scanned thrice and finally average of 3 was used to analyse the results.

The target in a further experiment is T2, lipase.
T2 construct: commercial (Sigma-Aldrich), dialyzed
The experiment in a line: Intrinsic Trp fluorescence quenching of A. niger lipase (excitation 280 nm, ligand 50-400 uM, inner-filter corrected), 10 mM phosphate pH 7.4, samples incubated at 298 K for about 24 h; Ka from double-logarithmic plot. The format is binding. As for the experimental part:
as §1, §2, §3
as §4, with “quenching. […]” for “quenching.”

Experiment [5] concerns the target T3, HSA (Homo sapiens, UniProt P02768). Briefly: UV-Vis absorption spectroscopy of HSA. The format is binding. More on the design: purchased Sigma-Aldrich. To be noted: HSA 0.4mg/ml, shifted from 278 nm, 298.15 K, pH 7.4. An excerpt:
UV-visible absorbance spectra were obtained using JASCO, V-560 spectrophotometer in the wavelength range 240 to 340 nm. The baseline was corrected for each spectrum.

Experiment [6] has as its target T3, HSA. Briefly: Intrinsic Trp214 fluorescence quenching of HSA (excitation 280 nm, ligand 50-400 uM, inner-filter corrected), 10 mM phosphate pH 7.4, 298 K; Ka from double-logarithmic plot. Also noted: gene ALB; commercial (Sigma-Aldrich), dialyzed. The note with it: read-out: Ka(M^-1) (converted). The format is binding. As for the experimental part:
as §1, §2, §3, §5
The plot of F0/F against [linalool] at 298K is given as S3A Fig. The values of ksv and kq could be calculated from the slope of curves. […] Ka and ‘n’ were calculated from equation: Log[(F0–F)/F] = logKa + n log[linalool].

Where two headings read alike, the source gives them in different places.

T3 sequence (P02768 25-609): as above

On to `Cc1ccc(C(C)C)cc1O` [carvacrol], for which, in the experiment with Aspergillus niger lipase [1], the “inhibition of lipase activity (in words)” value is given as “markedly inhibited lipase activity”, the inhibition of lipase entry is recorded as “approximately 50%” and the lipase activity result is on record as “approximately 50%”. In the experiment on Aspergillus niger lipase [2], the “strength of binding to lipase (in words)” value is reported as “strong binders” and the “binding affinity with Aspergillus niger lipase (order of magnitude)” value was ~10^7. For the same molecule, the “Ka (binding constant)” value in the experiment with Aspergillus niger lipase [2] (lipase, pH 7.4, double-logarithmic plot) was found to be 4.66e+07 M⁻¹. In the experiment with Aspergillus niger lipase [2] (lipase), the “ksv (Stern-Volmer constant)” value is 2170 M⁻¹ and the “kq (quenching rate constant)” value is 2.17e+12 M⁻¹ s⁻¹. For the same molecule, in experiment [3], the Kd is roughly 100 µM and the “blue shift in the emission maximum of HSA” value stood at 1 nm. The “n (number of binding site)” value in experiment [3] (HSA) was 1.29. In addition, in experiment [3] (HSA, 298K), the “kq (quenching rate constant)” value is 2.33e+12 M⁻¹ s⁻¹. The “ksv (Stern-Volmer quenching constant)” value in experiment [3] (HSA, 298K, ligand 50-400 μM) was found to be 2330 M⁻¹. For the same molecule, the “Ka (binding constant)” value in experiment [3] (HSA, double-logarithmic plot) was found to be 22000 M⁻¹. Also, the “MRE x 10^3 at 222nm (complex_400 μM)” value in experiment [4] was -24.91. Besides, the “Ka” value at lipase worked out at 4.6e+07 M⁻¹. For the same molecule, the “maximum absorption peak position of ligand-HSA complex” value (“maximum absorption peak position” below) on HSA [5] is given as 278.2 nm. For the same molecule, the Kd at HSA [6] was 45.5 µM.
Consider `C=CC(C)(O)CCC=C(C)C` (stereo not shown) [linalool], for which, in the experiment on Aspergillus niger lipase [1], the “inhibition of lipase activity (in words)” value was “markedly inhibited lipase activity”, the inhibition of lipase entry is recorded as “approximately 50%” and the lipase activity result is listed as “approximately 50%”. In the experiment on Aspergillus niger lipase [2], the “strength of binding to lipase (in words)” value is “weak binder” and the “binding affinity with Aspergillus niger lipase (order of magnitude)” value is reported as ~10^3. In the experiment with Aspergillus niger lipase [2] (lipase), the “ksv (Stern-Volmer constant)” value worked out at 17300 M⁻¹ and the “kq (quenching rate constant)” value turned out to be 1.73e+13 M⁻¹ s⁻¹. Further, in experiment [3], the Kd is roughly 100 µM and the “blue shift in the emission maximum of HSA” value was determined as 2 nm. The “n (number of binding site)” value in experiment [3] (HSA) stood at 1.36. Also, the “kq (quenching rate constant)” value in experiment [3] (HSA, 298K) was determined as 3.32e+12 M⁻¹ s⁻¹. In addition, the “ksv (Stern-Volmer quenching constant)” value in experiment [3] (HSA, 298K, ligand 50-400 μM) is 3320 M⁻¹. The association constant / binding affinity with HSA (order of magnitude) in experiment [3] (unit inferred) is roughly 10000 M⁻¹. Moreover, the “MRE x 10^3 at 222nm (complex_400 μM)” value in experiment [4] is on record as -23.13. The “Ka” value on lipase was found to be 5300 M⁻¹. Further, the “maximum absorption peak position” value on HSA [5] came to 278.5 nm. Moreover, the Kd on HSA [6] is 29.4 µM.
For `Cc1ccc(C(C)C)c(O)c1` [thymol], in the experiment on Aspergillus niger lipase [1], the “inhibition of lipase activity (in words)” value is “markedly inhibited lipase activity”, the inhibition of lipase entry was “approximately 50%” and the lipase activity entry is given as “approximately 50%”. Besides, in the experiment with Aspergillus niger lipase [2], the “strength of binding to lipase (in words)” value is “strong binders” and the “binding affinity with Aspergillus niger lipase (order of magnitude)” value was ~10^9. In the experiment on Aspergillus niger lipase [2] (lipase), the “ksv (Stern-Volmer constant)” value was determined as 17600 M⁻¹ and the “kq (quenching rate constant)” value was 1.76e+13 M⁻¹ s⁻¹. In experiment [3], the “kq (quenching rate constant)” value stood at 3.21e+13 M⁻¹ s⁻¹ and the “ksv (Stern-Volmer quenching constant)” value is 32100 M⁻¹. Also, the “Ka” value on lipase was 2.6e+09 M⁻¹. Moreover, the “maximum absorption peak position” value at HSA [5] was determined as 278.4 nm.
